These results are taken from patent US20230398130A1, “METHODS AND COMPOSITIONS FOR DIFFERENTIATING STEM CELLS” (Massachusetts Institute of Technology, priority 2020, published 2023).

Structures can show the parent of a compound that is named as a salt.

The assay concerns ISC-enriched organoids. Kind of assay: Primary screen, 384-well 2.5-D organoid differentiation (ENR+CD, 6 days, Target Selective Inhibitor Library, vs whole-plate median): ATP (CellTiter-Glo 3D, CTG). (In general: In ATP-based viability assays light output follows the ATP content of the culture.)
Setting [1] is: Dose 0.08 uM, standard z score of FC.
Where [2] appears, read: Dose 0.40 uM, standard z score of FC.
Where [3] appears, read: Dose 2.00 uM, standard z score of FC.
The mark [4] stands for this setting: Dose 10.00 uM, standard z score of FC.
Where [5] appears, read: Dose 0.40 uM, primary screen, standard z score.
The mark [6] stands for this setting: Dose 2.00 uM, primary screen, standard z score.
Where [7] appears, read: Dose 10.00 uM, primary screen, standard z score.

`CCN(CC)C(=O)/C(C#N)=C/c1cc(O)c(O)c([N+](=O)[O-])c1` [Entacapone]: the Z.CTG is −0.275 under setting [1], −0.154 under setting [2], 0.493 under setting [3] and −0.935 under setting [4].
Take `CCOc1ccccc1-n1c(C(C)N2CCN(C(=O)COc3ccc(Cl)cc3)CC2)nc2ccccc2c1=O` (stereo not drawn) [Erastin]: the Z.CTG is, setting by setting: under setting [1], 0.537; under setting [2], 0.681; under setting [3], 0.907; under setting [4], 0.711.
Turning to `COc1ccc2nc([S@@+]([O-])Cc3ncc(C)c(OC)c3C)[nH]c2c1` [Esomeprazole Sodium], the Z.CTG under setting [1] is recorded as 0.689, the Z.CTG under setting [2] is 0.475, the Z.CTG under setting [3] is given as 0.923 and the Z.CTG under setting [4] was determined as 0.648.
Turning to `CCc1cccc2c3c([nH]c12)C(CC)(CC(=O)O)OCC3` (stereo not drawn) [Etodolac], the Z.CTG is recorded as −0.147 under setting [1], 0.117 under setting [2], 0.020 under setting [3] and 0.054 under setting [4].
`Cc1nc(C(=O)NCC(=O)O)c(O)c2ccc(Oc3ccccc3)cc12` [FG-4592]: the Z.CTG runs as follows: under setting [1], 0.782; under setting [2], 0.679; under setting [3], 0.692; under setting [4], 0.568.
As to `CCOC(=O)C1=C(C)NC(C)=C(C(=O)OC)C1c1cccc(Cl)c1Cl` (stereo not drawn) [Felodipine], the Z.CTG is, setting by setting: under setting [1], −0.187; under setting [2], −0.763; under setting [3], 0.025; under setting [4], 0.078.
In the case of `CC(C)n1c(/C=C/C(O)CC(O)CC(=O)O)c(-c2ccc(F)cc2)c2ccccc21` (stereo not drawn) [Fluvastatin Sodium], the Z.CTG under setting [1] is on record as −0.384, the Z.CTG under setting [2] is on record as −1.151, the Z.CTG under setting [3] is on record as −2.653 and the Z.CTG under setting [4] is −4.206.
In the same order, the values of `COCCCC/C(=N\OCCN)c1ccc(C(F)(F)F)cc1` [Fluvoxamine maleate] are 0.274, 0.607, 0.504 and 0.330.
On to `C=C[C@@]1(C)CC(=O)[C@]2(O)[C@@]3(C)[C@@H](O)CCC(C)(C)[C@@H]3[C@H](O)[C@H](OC(C)=O)[C@@]2(C)O1` [Forskolin], for which the Z.CTG reads like this: under setting [1], −0.508; under setting [2], −0.418; under setting [3], −0.789; under setting [4], −0.284.
In the same order, the values of `C[C@]12CC[C@@H]3c4ccc(O)cc4C[C@@H](CCCCCCCCC[S+]([O-])CCCC(F)(F)C(F)(F)F)[C@H]3[C@@H]1CC[C@@H]2O` (stereo partly drawn) [Fulvestrant] are 0.285, −0.150, 0.339 and −0.488.
For `COc1ccc2c(c1)C(=O)N(CCc1ccc(S(=O)(=O)NC(=O)NC3CCCCC3)cc1)C(=O)C2(C)C` [Gliquidone], the Z.CTG under setting [1] is recorded as 0.297, the Z.CTG under setting [5] stood at 0.247, the Z.CTG under setting [6] is recorded as 0.588 and the Z.CTG under setting [7] is recorded as 0.320.
`CN1C2CCCC1CC(NC(=O)c1nn(C)c3ccccc13)C2` (stereo not drawn) [Granisetron HCl]: the Z.CTG is on record as −0.512 (Dose 0.08 uM, primary screen, standard z score); −0.205 under setting [5]; −0.426 under setting [6]; −0.710 under setting [7].
For the compound `Cc1cc(OCc2nnc(SC3CCCC3)n2-c2cccnc2)ccc1-c1ccc(S(C)(=O)=O)cc1` [NMS-873], the Z.CTG reads like this: under setting [1], 0.416; under setting [2], −0.122; under setting [3], −2.173; under setting [4], −3.683.
On to `COc1ccccc1N1CCN(CC(O)COc2cccc3ccccc23)CC1` (stereo not drawn) [Naftopidil], for which the Z.CTG under setting [1] is on record as −0.093, the Z.CTG under setting [2] is given as −0.384, the Z.CTG under setting [3] was −0.426 and the Z.CTG under setting [4] is given as −0.316.
For the compound `COc1ccc2cc([C@H](C)C(=O)O)ccc2c1` [Naproxen], the Z.CTG by setting is: under setting [1], −0.233; under setting [2], −0.162; under setting [3], −1.405; under setting [4], −3.063.
Regarding `OC(CNCC(O)C1CCc2cc(F)ccc2O1)C1CCc2cc(F)ccc2O1` (stereo not drawn) [Nebivolol], the Z.CTG under setting [1] worked out at 0.926, the Z.CTG under setting [2] is 0.526, the Z.CTG under setting [3] stood at 0.746 and the Z.CTG under setting [4] is 0.499.
In the same order, the values of `COC(=O)C1=C(C#N)NC(C)=C(C(=O)OC(C)C)C1c1cccc([N+](=O)[O-])c1` (stereo not drawn) [Nilvadipine] are 0.493, 0.324, 0.506 and 0.460.
As to `Cc1c(Cc2ccc3ccccc3n2)c2cc(F)ccc2n1CC(=O)O` [OC000459], the Z.CTG under setting [1] is on record as 0.184, the Z.CTG under setting [2] is reported as −0.155, the Z.CTG under setting [3] is on record as 0.210 and the Z.CTG under setting [4] was 0.211.
With `Cc1sc2c(c1C)C(c1ccc(Cl)cc1)=N[C@@H](CC(=O)Nc1ccc(O)cc1)c1nnc(C)n1-2` [OTX015], the Z.CTG runs as follows: under setting [1], −0.092; under setting [2], −0.952; under setting [3], −1.638; under setting [4], −2.169.
Regarding `NC(=O)N1c2ccccc2CC(=O)c2ccccc21` [Oxcarbazepine], the Z.CTG under setting [1] is on record as −0.051, the Z.CTG under setting [2] is −0.247, the Z.CTG under setting [3] is listed as −0.197 and the Z.CTG under setting [4] is listed as −0.359.
For `Cc1cc(C(C)(C)C)c(O)c(C)c1CC1=NCCN1` [Oxymetazoline HCl], the Z.CTG by setting is: under setting [1], 0.340; under setting [2], 0.281; under setting [3], −0.016; under setting [4], 0.282.
For `O=C(O)/C=C/c1ccc(Cn2ccnc2)cc1` [Ozagrel HCl], the Z.CTG reads like this: under setting [1], 0.118; under setting [2], 0.318; under setting [3], 0.437; under setting [4], 0.547.
Consider `O=C(O)/C=C/c1ccc(Cn2ccnc2)cc1` [Ozagrel], for which the Z.CTG under setting [1] stood at 0.131, the Z.CTG under setting [2] was 0.535, the Z.CTG under setting [3] is recorded as −0.149 and the Z.CTG under setting [4] is given as 0.271.
With `O=C(NOC[C@H](O)CO)c1ccc(F)c(F)c1Nc1ccc(I)cc1F` [PD0325901], the Z.CTG under setting [1] was −1.200, the Z.CTG under setting [2] is listed as −2.760, the Z.CTG under setting [3] is on record as −2.072 and the Z.CTG under setting [4] is given as −2.301.
In the same order, the values of `CC(C)CC(=O)Nc1[nH]nc2c1CN(C(=O)C1CCN(C)CC1)C2(C)C` [PHA-793887] are 0.271, 0.314, −0.344 and −2.045.
In the same order, the values of `Oc1cc(O)cc(/C=C/c2ccc(O)c(O)c2)c1` [Piceatannol] are 0.554, −0.216, 0.177 and −0.170.
The like results for `COc1ccc(-c2nc3ccc(C4=NNC(=O)CC4C)cc3[nH]2)cc1` (stereo not drawn) [Pimobendan] were, in that order, −0.053, 0.460, 0.492 and 0.333.
Consider `Nc1cccc2c1C(=O)N(C1CCC(=O)NC1=O)C2=O` (stereo not drawn) [Pomalidomide], for which the Z.CTG is listed as 0.150 under setting [1], 0.536 under setting [2], −0.517 under setting [3] and −0.729 under setting [4].
As for `C#CCC(Cc1cnc2nc(N)nc(N)c2n1)c1ccc(C(=O)N[C@@H](CCC(=O)O)C(=O)O)cc1` (stereo partly drawn) [Pralatrexate], the “Z.CTG (standard z score)” value reads like this: (Dose 0.08 uM, primary screen) −1.551; (Dose 0.40 uM, primary screen) −2.036; (Dose 2.00 uM, primary screen) −1.626; (Dose 10.00 uM, primary screen) −2.201.
On to `CCCN[C@H]1CCc2nc(N)sc2C1` [Pramipexole], for which the “Z.CTG (standard z score)” value (Dose 0.08 uM, primary screen) is given as 0.261; the “Z.CTG (standard z score)” value (Dose 0.40 uM, primary screen) came to 0.436; the “Z.CTG (standard z score)” value (Dose 2.00 uM, primary screen) is on record as 0.062; the “Z.CTG (standard z score)” value (Dose 10.00 uM, primary screen) is given as 0.551.
The like results for `CC(C)NCC(O)COc1cccc2ccccc12` (stereo not drawn) [Propranolol HCl] were, in that order, 0.158, 0.129, 0.279 and 0.400.
The like results for `CCc1nc(N)nc(N)c1-c1ccc(Cl)cc1` [Pyrimethamine] were, in that order, 0.016, −0.618, −0.994 and −1.480.
Consider `CCC(=O)NCC[C@@H]1CCc2ccc3c(c21)CCO3` [Ramelteon], for which the “Z.CTG (standard z score)” value runs as follows: (Dose 0.08 uM, primary screen) −0.066; (Dose 0.40 uM, primary screen) 0.369; (Dose 2.00 uM, primary screen) −0.752; (Dose 10.00 uM, primary screen) 0.358.
The like results for `CNC(=C[N+](=O)[O-])NCCSCc1ccc(CN(C)C)o1` [Ranitidine] were, in that order, −0.121, 0.370, −0.165 and −0.625.
On to `C#CCN[C@@H]1CCc2ccccc21` [Rasagiline Mesylate], for which the “Z.CTG (standard z score)” value (Dose 0.08 uM, primary screen) is 0.367; the “Z.CTG (standard z score)” value (Dose 0.40 uM, primary screen) is 0.246; the “Z.CTG (standard z score)” value (Dose 2.00 uM, primary screen) is on record as 0.099; the “Z.CTG (standard z score)” value (Dose 10.00 uM, primary screen) is on record as 0.249.
The like results for `O=C(NC(Cc1cc(=O)[nH]c2ccccc12)C(=O)O)c1ccc(Cl)cc1` (stereo not drawn) [Rebamipide] were, in that order, −0.612, −1.217, −0.484 and −0.672.
